# Measurements from patent publication US20210145801A1, “THERAPY FOR PROTEIN MISFOLDING DISEASE” (WREN THERAPEUTICS LIMITED, priority 2018, published 2021).
# Assays:
# Aβ42 = biological target: T1, Aβ42 (Homo sapiens, UniProt P05067); assay: Aβ42 aggregation kinetics in human CSF; format: biochemical; settings: 66% CSF; 1.25 and 5-fold excess
# T1 construct: made in house; host or cells: E. coli BL21 Gold (DE3)
# Experimental: For the experiments of Aβ42 aggregation kinetics in human CSF, monomeric solutions of 3 μM Aβ42 were prepared similar to above with the only exception that the buffer was 20 mM Hepes, pH 8 supplemented with 1 mM CaCl2 at 150 mM NaCl. The obtained monomer was diluted with the […] in order to reach 66% final concentration of CSF, in which the effect of CSF is close to maximum. Aβ42 aggregation kinetics were performed in the absence and the presence of 1.25 and 5-fold excess of Netoglitazone.
# Aβ42 oligomers = biological target: T2, Aβ42 oligomers (Homo sapiens, UniProt P05067); assay: ELISA with oligomer-specific antibody; format: biochemical; settings: 5 μM Aβ42; 5-fold excess; at half-time of Aβ42 alone
# T2 construct: made in house; host or cells: E. coli BL21 Gold (DE3)
# T2 sequence (P05067 671-713): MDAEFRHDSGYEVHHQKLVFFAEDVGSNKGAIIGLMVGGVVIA
# Experimental: 20 μl Aliquots were taken at the t50 (i.e. half-time) from aggregation reactions of 5 μM Aβ42 in the absence and in the presence of 5-fold excess of Netoglitazone. Samples were then immobilised on a 96-well Maxisorp ELISA plate (Nunc, Roskilde, Denmark) with no shaking for 1 h at room temperature. The plate was then washed three times with 20 mM Tris pH 7.4, 100 mM NaCl and incubated in 20 mM Tris pH 7.4, 100 mM NaCl, 5% BSA under constant shaking overnight at 4° C. The day after the plate was washed six times with 20 mM Tris pH 7.4, 100 mM NaCl and then incubated with 30 μl solutions of 5 μM oligomer-specific antibody under constant shaking either for 1 hour or overnight at room temperature. At the end of this incubation, the plate was washed six times with 20 mM Tris pH 7.4, 100 mM NaCl and incubated with 30 μl solutions of Rabbit polyclonal to 6× His Tag® HRP conjugated (Abcam, Cambridge, UK) at a dilution of 1:4000 in 20 mM Tris pH 7.4, 100 mM NaCl, 5% BSA under shaking for 1 hour at room temperature. […] Finally, the amount of bound oligomer-specific antibody was quantified by using 1-Step™ Ultra TMB-ELISA Substrate Solution (ThermoFisher Scientific, Waltham, Mass., United States), according to manufacturer instructions, and measuring the absorbance at 450 nm by means of a CLARIOstar plate reader (BMG Labtech, Aylesbury, UK).
# PD worms (NL5901) = assay: Automated motility assay in PD worms; format: in vivo, C. elegans; settings: same concentration range as in AD worms
# Experimental: (§1) Standard conditions were used for the propagation of C. elegans (S. Brenner, The genetics of Caenorhabditis elegans. Genetics. 77, 71-94 (1974)). Briefly, the animals were synchronized by hypochlorite bleaching, hatched overnight in M9 buffer (3 g/l KH2PO4, 6 g/l Na2HPO4, 5 g/l NaCl, […]), and subsequently cultured at 20° C. on nematode growth medium (NGM) (CaCl2) 1 mM, MgSO4 1 mM, cholesterol 5 μg/mL, PBS Buffer (250 μM KH2PO4, 67.5 μM KCl, 3.425 mM of NaCl, pH 6), Agar 17 g/L, NaCl 3 g/1, casein 7.5 g/l) plates seeded with the E. coli strain OP50. […]
# (§2) All C. elegans populations were cultured at 20° C. and developmentally synchronized from a 4 h egg-lay. At 64-72 h post-egg-lay (time zero), individuals were transferred to FUDR plates, and body movements were assessed over the times indicated. At different ages, the animals were washed off the plates with M9 buffer and spread over an OP-50 unseeded 9 cm plate, after which their movements were recorded at 20 fps using a recently developed microscopic procedure (M. Perni et al., Massively parallel C. elegans tracking provides multi-dimensional fingerprints for phenotypic discovery. J. Neurosci. Methods. 306, 57-67 (2018)) for 1 min. Up to 600 animals were counted in each experiment in duplicate unless stated otherwise. […]
# [1] = tested on: N2 control (healthy) worms; assay: Automated motility assay in healthy control worms; format: in vivo, C. elegans; settings: same concentration range as in AD worms
# Experimental: as §1, §2
# [2] = tested on: Aβ1-42Neur worms (CL2355); assay: Automated motility assay in Aβ1-42Neur worms; format: in vivo, C. elegans; settings: vs untreated worms
# Experimental: Briefly, Netoglitazone stocks (5 mM in 100% DMSO) were used at an appropriate concentration to seed 9-cm NGM plates. Plates were then placed in a laminar flow hood at room temperature (22° C.) for up to 4 hours to dry. C. elegans cultures were then transferred onto media seeded with compound as L4 stage or Day 3 for late treatments and incubated at 24° for the whole experiment. Experiments were carried out at different Netoglitazone concentrations ranging from 0.05 to 500 μM in 1% DMSO. As controls, plates seeded only with 1% DMSO were used.
# as §2
# T1 sequence (P05067 671-713): as above
smiles,measurement,setting,value
O=C1NC(=O)C(Cc2ccc3cc(OCc4ccccc4F)ccc3c2)S1 (centres unmarked) [Netoglitazone],Delay of Aβ42 aggregation kinetics in 66% human CSF,Aβ42,significantly delayed the aggregation kinetics in a concentration-dependent manner
same,Aβ42 oligomer concentration (ELISA),Aβ42 oligomers,significant reduction in the Aβ42 oligomer concentration
same,Effect on mobility of PD worms,PD worms (NL5901),negligible compared to the observed effect in AD worms
same,Effect on mobility of healthy worms,[1],negligible compared to the observed effect in AD worms
same,Motility of Aβ1-42Neur worms,[2],significantly improves the (A) chemotaxis index and (B) motility
